{"source": "patent US10513697B2", "about": "“CO2 profile cultivation” (Hoffmann-La Roche Inc., priority 2011, dated 2019)", "key": {"[1]": {"tested_on": "control cell line in HyQ medium (Control HyQ, non-transfected CHO cell line)", "experiment": "Re-alkalinization experiment (pHi recovery after CO2 acid load, flow cytometry) in control cell line", "type": "cell-based, Chinese Hamster", "protocol": "To examine the effect of hCAII expression on the cell internal pH value (pHi), the control cell line in HyQ medium and clone E11 were submitted to a short term acidification. This was achieved by mixing the cells with a CO2-containing solution and measuring the subsequent pHi recovery. […] A replicate of this experiment was performed with the carbonic anhydrase II inhibitor ethoxyzolamide and the results are presented in FIGS. 7(A) and 7(B). […] The following Table summarizes some of the characteristics of the tested cell lines.\npHi measurements were carried out by flow cytometry with the available pHi fluorescent indicator, Carboxy SNARF-1 AM (Molecular Probes Inc.). This dye is an acetoxymethyl (AM) ester that enter the cells readily and is hydrolyzed by non-specific esterases to yield the free fluorescent dye. SNARF-1 AM is very sensitive to pHi changes within the physiological range. It is excited between 488 nm and 530 nm and the fluorescence emission is monitored at two wavelengths, typically about 580 nm (FL2-H) and 640 nm (FL3-H). This is particularly interesting as the fluorescence emission wavelength ratio can be calculated foe a more accurate determination of the pHi. With the use of this ratiometric technique, a number of fluorescence measurement artifacts are eliminated, such as photobleaching, cell thickness and leakage and non-uniform loading of the indicator (SNARF® pH indicators, Product information, 2003, Molecular Probes Inc.). Herein the Pseudo-Null calibration method was used. […] A simplification can be considered if the calibration solutions are prepared in such a way that a concentration of weak base and a concentration of weak acid produce an equal but opposite change in pHi (i.e., pHa=pHb). The derived relationship for pHi determination is presented in Equation 10.11.\nThe regulation of the pHi was studied by flow cytometric analysis during intracellular acidification with bicarbonate. The kinetic of the transporters were examined. This test was made at physiological conditions. Therefore medium was used instead of buffer to account for influences of other medium components. To eliminate the activity of other cellular pHi-regulation systems, cells were pre-incubated in bicarbonate-free medium buffered with HEPES. […] This system consisting of two disposable 5 ml Luer-Lock syringes (B. Braun AG, Melsungen, Germany) connected by a short tubing and two Luer tubing connectors (Rotilabo®). These Luer connectors permitted the rapid and easy connection/disconnection of the 2 syringes.\nSyringe A contained stained cells in bicarbonate-free production medium and syringe B production medium with 4.2 g/l NaHCO3 (corresponding to […] at pH 7.2). Both media contained 20 mM HEPES and were adjusted to pH 7.2 at 37° C. Acid-load was achieved by pressing bicarbonate-containing medium from syringe B into syringe A. A 5 ml syringe was pre-loaded with 22 μl of SNARF-1 AM (2 mM stock solution; Table 3). 1×10^6 cells, from the exponential phase, were harvested and washed once with 4 ml medium without bicarbonate. After which, the cell suspension was sucked (without air bubbles) into the pre-loaded fluorescence dye syringe, which was them closed with the Luer-stopper and gently mixed. […] The syringe B was discarded, syringe A was closed and after short mixing, the acid-loaded cells were analyzed by flow cytometry. Additionally, some samples were measured with the blood gas analyzer to determine the content of CO2 in medium during the experiment. […]"}, "[2]": {"tested_on": "hCAII-expressing CHO cell clone E11", "experiment": "Re-alkalinization experiment (pHi recovery after CO2 acid load, flow cytometry) in hCAII-expressing clone", "type": "cell-based, Chinese Hamster", "quoted_text": "pHi measurements were carried out by flow cytometry with the available pHi fluorescent indicator, Carboxy SNARF-1 AM (Molecular Probes Inc.). This dye is an acetoxymethyl (AM) ester that enter the cells readily and is hydrolyzed by non-specific esterases to yield the free fluorescent dye. SNARF-1 AM is very sensitive to pHi changes within the physiological range. It is excited between 488 nm and 530 nm and the fluorescence emission is monitored at two wavelengths, typically about 580 nm (FL2-H) and 640 nm (FL3-H). This is particularly interesting as the fluorescence emission wavelength ratio can be calculated foe a more accurate determination of the pHi. […] Herein the Pseudo-Null calibration method was used. […] A simplification can be considered if the calibration solutions are prepared in such a way that a concentration of weak base and a concentration of weak acid produce an equal but opposite change in pHi (i.e., pHa=pHb). The derived relationship for pHi determination is presented in Equation 10.11.\nSyringe A contained stained cells in bicarbonate-free production medium and syringe B production medium with 4.2 g/l NaHCO3 (corresponding to 25% CO2 at pH 7.2). Both media contained 20 mM HEPES and were adjusted to pH 7.2 at 37° C. Acid-load was achieved by pressing bicarbonate-containing medium from syringe B into syringe A. A 5 ml syringe was pre-loaded with 22 μl of SNARF-1 AM (2 mM stock solution; Table 3). 1×10^6 cells, from the exponential phase, were harvested and washed once with 4 ml medium without bicarbonate. After which, the cell suspension was sucked (without air bubbles) into the pre-loaded fluorescence dye syringe, which was them closed with the Luer-stopper and gently mixed. After a 25 min. period of incubation at 37° C. in the dark, with regularly mixing to avoid cell settling, followed dissolved gas and flow cytometric analysis. Three measurements of loaded cells in bicarbonate-free medium were made before acidification of cells cytoplasm. Afterwards, the syringe B was connected to syringe A and the double volume of NaHCO3-containing medium was added. The syringe B was discarded, syringe A was closed and after short mixing, the acid-loaded cells were analyzed by flow cytometry. Additionally, some samples were measured with the blood gas analyzer to determine the content of CO2 in medium during the experiment.\nTo test if the re-alkalinization effect was due to the hCAII-overexpression, the hCAII inhibitor ethoxyzolamide (ACTZ) was used. […]"}}, "data": [{"smiles": "CCOc1ccc2nc(S(N)(=O)=O)sc2c1", "note": "[ACTZ, ethoxyzolamide]", "values": [{"measurement": "Steady state pHi", "setting": "[1]; Control HyQ + ACTZ, 100 μM ethoxyzolamide in media, pHe 7.10", "value": 7.02}, {"measurement": "pHi (acid load)", "setting": "[1]; Control HyQ + ACTZ, 100 μM ethoxyzolamide, about 9% CO2 acid load", "value": 6.84}, {"measurement": "pHi/min (5 min)", "setting": "[1]; Control HyQ + ACTZ, 100 μM ethoxyzolamide, initial recovery rate of first 5 min after acid load", "value": 0.049, "unit": "pHi/min"}, {"measurement": "decrease on the re-alkalinization rate", "setting": "[1]; control cell line in HyQ medium, in the presence of the inhibitor", "value": 30, "unit": "%"}, {"measurement": "time after exposure to CO2-containing medium at which steady state pHi was exceeded", "setting": "[1]; hCAII inhibited reaction, control cell line in HyQ medium (11 min. without inhibitor)", "value": 5, "unit": "min."}, {"measurement": "Steady state pHi", "setting": "[2]; Clone E11 + ACTZ, 100 μM ethoxyzolamide in media, pHe 7.11", "value": 6.87}, {"measurement": "pHi (acid load)", "setting": "[2]; Clone E11 + ACTZ, 100 μM ethoxyzolamide, about 9% CO2 acid load", "value": 6.61}, {"measurement": "pHi/min (5 min)", "setting": "[2]; Clone E11 + ACTZ, 100 μM ethoxyzolamide, initial recovery rate of first 5 min after acid load", "value": 0.057, "unit": "pHi/min"}, {"measurement": "decrease on the re-alkalinization rate", "setting": "[2]; clone E11, in the presence of the inhibitor", "value": 19, "unit": "%"}, {"measurement": "time after exposure to CO2-containing medium at which steady state pHi was exceeded", "setting": "[2]; hCAII inhibited reaction, clone E11 (8 min. without inhibitor)", "value": 5, "unit": "min."}]}]}
